One experiment has as its system influenza virus. The conditions noted are these: cited from earlier work.
Experiment [1] deals with HIV. The following applies: cited from earlier work.
Experiment [2] has as its system HIV. The following applies: human, in vivo; cited from earlier work.
Another experiment concerns the target HIV HR2 peptide (Human immunodeficiency virus type 1, UniProt P03377). The experiment is classed as binding.
In the next experiment the test system is HIV HR1-HR2 interaction. The class given is binding.
A further experiment relates to HIV-1 pseudovirions. The experiment is classed as cell-based. The conditions noted are these: 1 μM.

Sequence of HIV HR2 peptide (P03377 633-666 limits assumed): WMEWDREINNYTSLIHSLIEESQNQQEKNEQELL

For the compound `CC1(C)CC[C@]2(C(=O)O)CC[C@]3(C)C(=CC[C@@H]4[C@@]5(C)CC[C@H](O)C(C)(C)[C@@H]5CC[C@]43C)[C@@H]2C1` [OA, oleanolic acid], in the experiment on influenza virus, the “inhibitory effect on influenza virus entry” value is reported as “significant inhibitory effect”. In the experiment with HIV [1], the “inhibitory activity against HIV infection” value was “show inhibitory activity”.

Regarding `C=C(C)[C@@H]1CC[C@]2(C(=O)O)CC[C@]3(C)[C@H](CC[C@@H]4[C@@]5(C)CC[C@H](O)C(C)(C)[C@@H]5CC[C@]43C)[C@@H]12` [BA, betulinic acid], the “inhibitory activity against HIV infection” value in the experiment on HIV [1] is listed as “show inhibitory activity”.

On to `C=C(C)[C@@H]1CC[C@]2(C(=O)O)CC[C@]3(C)[C@H](CC[C@@H]4[C@@]5(C)CC[C@H](OC(=O)CC(C)(C)C(=O)O)C(C)(C)[C@@H]5CC[C@]43C)[C@@H]12` [bevirimat], for which the “efficacy in clinical trials” value with HIV [2] is “promising efficacy”.

Turning to `C=C(C)[C@@H]1CC[C@]2(C(=O)NCCCCCCCC(=O)N(CCCC3(C)N=N3)CC(=O)O)CC[C@]3(C)C(CCC4[C@@]5(C)CC[C@H](O)C(C)(C)C5CC[C@]43C)C12` (stereo partly shown) [Y20], on HIV HR2 peptide, the “binding to HIV-HR2 (in words)” value is reported as “binds tightly”. For the same compound, in the experiment with HIV HR1-HR2 interaction, the “effect on HIV-HR1/HIV-HR2 affinity (in words)” value was “significantly reduced their affinity”. Moreover, in the experiment with HIV-1 pseudovirions, the “inhibitory activity on the infectivity of HIV-1 pseudovirions” value is given as “exhibited inhibitory activity”.
